In EP1469074B1, “Human calcium channel compositions and methods” (priority 1991, dated 1993):

Legend:
[1] = test system: human neuronal calcium channel α1D (SEQ ID No. 1), α2 (SEQ ID No. 11) and β1 (SEQ ID No. 9) subunits, expressed in HEK 293 cells; assay: Whole-cell patch clamp of barium currents in transiently transfected HEK 293 cells; format: cell-based; conditions: 1 µM Bay K 8644
Method: Pflugers Arch. 391:85-100].
Two days after transient transfection of HEK 293 cells with α1, α2 and β1 subunit-encoding cDNA and the lacZ gene, individual transfectants were assayed for voltage-dependent barium currents. The currents in nine transfectants were recorded.

[2] = test system: human neuronal calcium channel α1D and α2 subunits, expressed in Xenopus laevis oöcytes; assay: Two-electrode voltage clamp of barium currents in Xenopus laevis oöcytes injected with α1D and α2 transcripts; format: cell-based; conditions: Bay K 8644; very small currents (15-30 nA); holding potential -90 mV
Source text: Plasmids pVDCC III.RBS(A), containing of pcDNA1 and the α1D cDNA that begins with a ribosome binding site and the eighth ATG codon of the coding sequence (see Example III.A.3.d), plasmid pHBCaCHα1A containing of pcDNA1 and an α2 subunit cDNA (see Example IV), and plasmid pHBCaCHβ1bRBS (A) containing pcDNA1 and the β1 DNA lacking intron sequence and containing a ribosome binding site (see Example III), were linearized by restriction digestion. The α1D cDNA- and α2 subunit-encoding plasmids were digested with XhoI, and the β1 subunit-encoding plasmid was digested with EcoRV. The DNA insert was transcribed with T7 RNA polymerase.

[3] = test system: human neuronal calcium channel α2 and β1 subunits, expressed in Xenopus laevis oöcytes; assay: Two-electrode voltage clamp of barium currents in Xenopus laevis oöcytes injected with α2 and β1 transcripts (no α1D; comparison); format: cell-based; conditions: Bay K 8644; n=11
[4] = test system: human neuronal calcium channel α1D (SEQ ID No. 1), α2 (SEQ ID No. 11) and β1 (SEQ ID No. 9) subunits, stably expressed in HEK 293 cells; assay: Whole-cell patch clamp of barium currents in stably transfected HEK 293 cells; conditions: Bay K 8644 1 µM

## COC(=O)C1=C(C)NC(C)=C([N+](=O)[O-])C1c1ccccc1C(F)(F)F (stereo not drawn) [Bay K 8644]
[1]; holding potential -90 mV, 15 mM Ba2+ bath, one transfectant
  effect on inward barium current: significantly enhanced in magnitude
[1]; membrane depolarized to 0 mV from holding potential -90 mV
  largest inward barium current in the presence of the compound: -160 pA
[2]
  response of barium currents to the compound: little or no response
[3]
  sensitivity of inward barium currents to the compound: insensitive
[4]; depolarized to -10 mV from holding potential -90 mV, approximately 35pA in its absence
  barium current during application of the compound: approximately 75 pA
[4]; same cell, series of depolarizing voltages
  shift of the current-voltage relation: about -10 mV
